These results are taken from PubChem BioAssay (NCI).

SMILES strings stand for the structures. Values joined by “and” are separate entries in the source; they are usually repeats but may differ in a detail not shown here. Equal values may be shown once.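 Protocol summary: plate cells (96-well), add compound at 5 concentrations, incubate 48 h, interpolate endpoints linearly. Abbreviation: GI50, concentration required for 50% inhibition of growth. TGI denotes the concentration required for complete inhibition of growth.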

Some test systems named below: T-47D breast; SK-MEL-5 melanoma; SR leukemia; MDA-MB-435; KM12 colon; MCF7 breast; RPMI-8226 leukemia; HL-60(TB) leukemia; SW-620 colon; HCT-116 colon.
What all share (test): NCI anticancer screen, dose series, 48 h

On to `CC[C@](C)(O)C(=O)O[C@H]1C(=O)O[C@@H]2C[C@H]3C(C)=CC(=O)[C@@H](O)[C@]3(C)[C@H]3[C@@]4(O)OC[C@]32[C@@H]1[C@@H](C)[C@H]4O`, for which the TGI in the test on T-47D breast was 3.78 µM; in the test on SK-MEL-5 melanoma it was 0.136 µM; with SR leukemia, 2.55 µM; in the test on MDA-MB-435, above 24.3 µM; in the test on KM12 colon, 3.62 µM and 0.404 µM; in the test on HL-60(TB) leukemia, 4.11 µM and 1.09 µM. Also, in the test with HCT-116 colon, the TGI was 0.957 µM and 0.376 µM. Moreover, the GI50 in the test with KM12 colon is 0.233 µM; with MCF7 breast, 0.335 µM; in the test with RPMI-8226 leukemia, 0.0928 µM; in the test on HL-60(TB) leukemia, 0.104 µM; in the test on SW-620 colon, 0.216 µM; in the test with HCT-116 colon it was 0.22 µM.

`CC12CCC(=O)C=C1CCC1C2CCC2(C)C(C(=O)Cn3cnc4c(=S)nc[nH]c43)CCC12` (stereo not given): the TGI was above 100 µM in the test with T-47D breast; above 100 µM in the test on SK-MEL-5 melanoma; above 100 µM in the test on SR leukemia; 96.4 µM in the test on MDA-MB-435; above 100 µM in the test with KM12 colon; 36.7 µM with MCF7 breast. Also, the TGI in the test with RPMI-8226 leukemia, in the test on HL-60(TB) leukemia, in the test on SW-620 colon and with HCT-116 colon was above 100 µM each time.

Take `CC[C@H](Nc1nc(N)nc(C)c1C#N)c1nc2cccc(CN(C)c3ncc(C(=O)NO)cn3)c2c(=O)n1-c1ccccc1`: the GI50 is 0.242 µM with T-47D breast; 0.391 µM with SK-MEL-5 melanoma; 0.396 µM with SR leukemia; 0.617 µM in the test on MDA-MB-435; 1.26 µM in the test on KM12 colon; 0.915 µM in the test on MCF7 breast. Also, the GI50 in the test with RPMI-8226 leukemia is 0.212 µM; in the test on HL-60(TB) leukemia it was 0.262 µM; with SW-620 colon it was 0.392 µM; with HCT-116 colon it was 0.364 µM. Besides, the TGI in the test with SK-MEL-5 melanoma is 1.12 µM; with SR leukemia, above 50 µM; in the test on MDA-MB-435, 2.26 µM; in the test on KM12 colon, 5.21 µM; in the test with MCF7 breast, above 24.5 µM; in the test with RPMI-8226 leukemia, above 40.8 µM. For the same compound, the figures for the TGI in the test with HL-60(TB) leukemia, in the test on SW-620 colon and in the test on HCT-116 colon were 3.48 µM, 3.43 µM and 2.92 µM, respectively.

For `C[C@]12CC[C@H]3[C@@H](CCC4=CC(=O)CC[C@@H]43)[C@@H]1CC[C@@H]2OC(=O)N(CCCl)N=O`, the GI50 in the test with T-47D breast is 3.52 µM; in the test with SK-MEL-5 melanoma, 1.99 µM; with SR leukemia, below 0.0381 µM; with MDA-MB-435 it was 3.54 µM; in the test with KM12 colon, 2.95 µM; in the test on MCF7 breast, 7.07 µM. Also, the GI50 in the test on RPMI-8226 leukemia is 0.983 µM; in the test with HL-60(TB) leukemia it was 0.28 µM; in the test with SW-620 colon, 1.75 µM; in the test on HCT-116 colon, 3.92 µM. For the same compound, the TGI with T-47D breast is 29.3 µM; in the test with SK-MEL-5 melanoma, 16.1 µM; in the test with MDA-MB-435 it was 32.5 µM; in the test with KM12 colon, 19.2 µM; in the test on MCF7 breast, 29.8 µM; in the test on HL-60(TB) leukemia it was 2.15 µM. The results for the TGI in the test with SW-620 colon and in the test on HCT-116 colon were 26.7 µM and 19.2 µM, respectively.

`N#CSc1ncnc2nc[nH]c12`: the GI50 was 2.25 µM in the test on T-47D breast; 15.2 µM with SK-MEL-5 melanoma; 4.02 µM in the test with SR leukemia; 3.65 µM with MDA-MB-435; 3.26 µM in the test on KM12 colon; 2.35 µM in the test on MCF7 breast. The GI50 in the test on RPMI-8226 leukemia was 4.13 µM; with HL-60(TB) leukemia, 5.5 µM; in the test on SW-620 colon it was 7.85 µM; with HCT-116 colon, 3.04 µM. Also, the TGI was above 80 µM in the test on T-47D breast; above 100 µM in the test on SK-MEL-5 melanoma; 32.2 µM with SR leukemia; above 100 µM with MDA-MB-435; above 48.5 µM in the test with KM12 colon; above 79.4 µM in the test on MCF7 breast. The TGI in the test with RPMI-8226 leukemia, with HL-60(TB) leukemia, in the test on SW-620 colon and in the test on HCT-116 colon was above 100 µM throughout.

As for `O=C1C(Cl)=C(N/N=c2/[nH][nH]/c(=N/NC3=C(Cl)C(=O)c4ccccc4C3=O)c3ccccc23)C(=O)c2ccccc21`, the GI50 with T-47D breast was 6.71 µM; in the test with SK-MEL-5 melanoma, 14.1 µM; with SR leukemia, 9.97 µM; in the test with MDA-MB-435, 17.8 µM; with KM12 colon, 5.16 µM; with MCF7 breast, 12.3 µM. Further, the GI50 with RPMI-8226 leukemia was 10.1 µM; in the test on HL-60(TB) leukemia, 8.45 µM; in the test on SW-620 colon, 16.6 µM; in the test with HCT-116 colon, 14.3 µM. Also, the TGI with T-47D breast was 36.8 µM; in the test on SK-MEL-5 melanoma, 29.3 µM; with SR leukemia, 59.1 µM; with MDA-MB-435, 36.6 µM; in the test on KM12 colon, 20.7 µM; in the test with MCF7 breast, 38.4 µM. The TGI turned out to be 44.1 µM in the test with RPMI-8226 leukemia, 34.2 µM with HL-60(TB) leukemia, 43.3 µM in the test with SW-620 colon and 32.3 µM with HCT-116 colon.

Consider `Nc1nc(/C=C\c2ccc([N+](=O)[O-])o2)nc(N2CCN(c3ccccc3)CC2)n1`, for which the GI50 in the test with T-47D breast is 13.5 µM; in the test on SK-MEL-5 melanoma, 6.14 µM; in the test with SR leukemia, 3.59 µM; with MDA-MB-435, 3.98 µM; in the test on KM12 colon, 11.5 µM; with MCF7 breast, 3.07 µM. Also, the GI50 in the test on RPMI-8226 leukemia was 3.62 µM; in the test with HL-60(TB) leukemia, 7.73 µM; in the test on SW-620 colon it was 4.6 µM; in the test with HCT-116 colon, 2.61 µM. The TGI with T-47D breast was 60 µM; in the test on SK-MEL-5 melanoma, 25.1 µM; with SR leukemia it was 83 µM; in the test on MDA-MB-435, 26 µM; in the test with KM12 colon, 62.9 µM; in the test with MCF7 breast it was 29.1 µM. Further, the TGI in the test with RPMI-8226 leukemia was above 100 µM; in the test on HL-60(TB) leukemia, 61.8 µM; in the test with SW-620 colon, above 100 µM; in the test with HCT-116 colon, 12.2 µM.

Regarding `C=C(C)[C@@H]1CC[C@]2(C(=O)NCCCN)CC[C@]3(C)[C@H](CC[C@@H]4[C@@]5(C)CC[C@H](O)C(C)(C)[C@@H]5CC[C@]43C)[C@@H]12`, the GI50 was 13.1 µM in the test on T-47D breast; 19.4 µM in the test on SK-MEL-5 melanoma; 9.05 µM with SR leukemia; 28.7 µM in the test on MDA-MB-435; 17.3 µM in the test with KM12 colon; 10.7 µM in the test with MCF7 breast. For the same compound, the GI50 was 17.2 µM in the test on RPMI-8226 leukemia, 16.5 µM with HL-60(TB) leukemia, 22.5 µM in the test on SW-620 colon and 13.9 µM in the test with HCT-116 colon. Moreover, the TGI with T-47D breast is 53.2 µM; in the test on SK-MEL-5 melanoma, 48.6 µM; in the test with SR leukemia, above 100 µM; in the test on MDA-MB-435 it was above 100 µM; with KM12 colon it was 52.9 µM; with MCF7 breast, 95.8 µM. In addition, the TGI in the test on RPMI-8226 leukemia is 92.6 µM; in the test on HL-60(TB) leukemia it was 50.7 µM; in the test on SW-620 colon it was above 100 µM; with HCT-116 colon, 62.4 µM.
